In patent US20090060984A1, “ANIONIC SURFACTANTS LETHAL TO GRAM-POSITIVE BACTERIA” (priority 2007, published 2009):
Several values for one entry are separate records, joined by “and”; a condition that tells them apart may be missing. Equal entries are not always repeated. Where two headings read alike, the source gives them in different places.

What was measured:
[1] = system: E. coli ATCC 11229
Procedure: Escherichia coli ATCC 11229 (Culti-loops, Remel Europe, Dartford, Kent, UK) and Pseudomonas aeruginosa ATCC 15442 (Cuti-loops, Remel Europe, Dartford, Kent, UK) were selected as model Gram-negative organisms for the challenge testing of the antimicrobial coatings. Each bacterial strain was streaked for isolated colonies on Tryptic Soy Agar (TSA) plates (Difco, Becton Dickinson, Sparks, Md., U.S.A.) and incubated at 37° C. for 12 to 18 hours. Broth cultures were prepared by first picking 1-2 isolated colonies from TSA plates and inoculating 5 mL Tryptic Soy Broth (TSB; Difco, Becton Dickinson, Sparks, Md., U.S.A.) in a 16 mm test tube. This culture was grown in a shaking water bath at 150 RPM for 8 hours at 37° C. After the eight hours, 125 μL of this culture was added to 50 mL of TSB in a side-arm Klett flask and grown for approximately 8 hours in shaking water bath (150 RPM) at 37° C. The bacterial broths were grown to an A590 of 1.2-1.5, which correlated to approximately 10^9 CFU (colony forming units)/mL. 25 mL of this broth were transferred to a sterile 30 mL Oakridge tube and centrifuged at 12,000×g for 10 minutes at 4° C. (Sorval SS34 rotor) to pelletize the bacteria. The bacterial pellet was washed once and resuspended in 25 mL of phosphate buffer solution (PBS; BBL, FTA Hemaglutination Buffer, Becton Dickinson, Sparks, Md., U.S.A.). The suspension was diluted with PBS to achieve the target range of 10^5-10^6 CFU/mL and used to inoculate the slides containing antibacterial coatings.
The glass slides are then washed with acetone and water.
The 10% substitution on this weight basis corresponds to substitution of one tenth of the total surfactant weight or to 3% of the total composition weight.
Bacterial cultures as prepared and described in Example 12 are applied to the surfactant polymer coated slides as prepared and described in Example 26. All inoculations are performed in a laminar flow hood. Sterilized slides are placed into a sterile Petri dish. Then 0.5 mL of the prepared bacterial suspensions is pipetted directly onto the slide, which spreads across the surface of the coating but remains on top of the slide.
The surviving bacteria from the exposures described in Example 27 are determined as follows: At each time point, 25 mL of sterile PBS is pipetted into the Petri dish completely submerging the slide, and a sterile plastic inoculating loop is used to release any viable bacteria remaining on the surface of the coating. Samples are plated onto TSA plates, and incubated at 37° C. for at least 24 h. Plates containing between 30 and 300 isolated colonies are counted.

[2] = system: Escherichia coli ATCC 11229; conditions: for E. coli on sprayed household surfaces: metal plate, wall paper, vinyl tile, 0.06% silver solution
Procedure: The antimicrobial activities of the coatings on coupons and slides are tested against both Gram-positive (Staphylococcus aureus ATCC 6538) and Gram-negative (Escherichia coli ATCC 11229) bacteria. The following set of steps are executed over a four day period, in order to evaluate the coatings for antimicrobial activity.
(1) Three colonies are picked from a Petri dish that contains refrigerator stock of E. coli and S. aureus. Each of the colonies is placed into a separate test tube of 5 mL of TSB (tryptic soy broth); (2) the TSB cultures are incubated in a heated shaker; the culture is grown overnight at 37° C. while shaking at 175 rpm.
(1) 500 μL (0.5 mL) of FINAL E. coli bacteria are placed onto the center of each sterilized coating (24 hour); the same is done with S. aureus; (2) the coupons/coatings are stored for 24 hours in sealed pan by stacking Petri dishes on top of one another; (3) 200 mL of sterile water is added to the bottom of each pan; each pan is enclosed with clear saran wrap and aluminum foil; the Pyrex pans containing the coatings are incubated at room temperature for 24 hours; all inoculations of the coatings are performed in the same laminar flow hood as where the sterilized slides are placed into sterile Petri dishes; the prepared bacterial suspension (0.5 ml) is directly pipetted onto the coating of the slide; the spreading of the innoculum across the surface of the coating is observed and noted.
(1) 500 μL (0.5 mL) of FINAL E. coli bacteria is placed onto the center of each sterilized coating (0 hour); the same is done with S. aureus; (2) after bacteria are added to the 0 hour coatings, each Petri dish (containing the coating) is submerged with 25 mL of PBS; this immersion stops the viable bacteria from continuing to grow; (3) 100 μL of fluid is removed from coatings dish and placed in the middle of a previously labeled TSA plate; this is done to both agar plates labeled with −1 concentration; before removing the fluid, the surface of the coupon is scratched with a sterile loop to activate movement of bacteria; (4) “hockey sticks” are sterilized with ethanol and flame, to spread solution thoroughly; (5) the concentration of bacteria is diluted by removing 500 μL of the fluid in the coupon dish and placing it into a test tube with 4.5 mL of PBS; this solution is diluted in duplicate by removing 100 μL of the fluid and spreading into TSA plates labeled −2; (6) sterilized “hockey sticks” are used to spread solution thoroughly; (7) 500 μL of fluid from 1st tube prepared in step 5 is removed and placed into 4.5 mL of PBS; this dilution is mixed and 100 μL is removed in duplicate and placed into two new TSA plates labeled −3; (8) sterilized “hockey sticks” are used to spread these dilutions thoroughly; (9) steps 1-8 are repeated for each of the coupons or slides.

[3] = 0.061% weight w/w Ag in coating (first column 0.113), polyurethane, microscope slides
[4] = 0.122% weight w/w Ag in coating (first column 0.226), polyurethane, microscope slides
[5] = 24 hour exposure, polyurethane coated lantern slides
[6] = […] weight w/w Ag in coating (first column 0.0574), polyurethane, microscope slides
[7] = acetate sprayed with 0.06% w/w AgAOT/isopropanol, 24 h contact time
[8] = cotton sprayed with 0.06% w/w AgAOT/isopropanol, 24 h contact time
[9] = linen sprayed with 0.06% w/w AgAOT/isopropanol, 24 h contact time
[10] = metal plate sprayed with 0.06% Ag+ AgAOT solution, 0 h contact time
[11] = metal plate sprayed with 0.06% Ag+ AgAOT solution, 24 h contact time
[12] = polyester sprayed with 0.06% w/w AgAOT/isopropanol, 24 h contact time
[13] = silk sprayed with 0.06% w/w AgAOT/isopropanol, 0 h contact time
[14] = silk sprayed with 0.24% w/w AgAOT/isopropanol, 0 h
[15] = silk sprayed with 0.24% w/w AgAOT/isopropanol, 24 h
[16] = vinyl tile sprayed with 0.06% Ag+ AgAOT solution, 0 h contact time
[17] = vinyl tile sprayed with 0.06% Ag+ AgAOT solution, 24 h contact time
[18] = wall-paper sprayed with 0.06% Ag+ AgAOT solution, 24 h contact time

**Q.** With CCCCC(CC)COC(=O)CC(C(=O)OCC(CC)CCCC)S(=O)(=O)[O-].[Ag+] (centres unmarked) [AgAOT] as the compound, how does the “CFU/mL of E. coli at 12 hours” value [1, 3] read?
**A.** 0, 0, 0 CFU/mL

**Q.** And the “CFU/mL of E. coli at 24 hours” value [1, 3]?
**A.** 0, 0, 0 CFU/mL

**Q.** And the “CFU/mL of E. coli at 12 hours” value [1, 4]?
**A.** 0, 0, 0 CFU/mL

**Q.** What about the “CFU/mL of E. coli at 24 hours” value [1, 4] of the same compound?
**A.** 0, 0, 0 CFU/mL

**Q.** And the “CFU/mL of E. coli at 24 hours” value ([1]; 0.5% substituted for sodium salt in coating ([…] weight silver), polyurethane coated lantern slides)?
**A.** 0; 0 CFU/mL

**Q.** And the “CFU/mL of E. coli at 24 hours” value ([1]; 1.0% substituted for sodium salt in coating (0.061% weight silver), polyurethane coated lantern slides)?
**A.** 0; 0 CFU/mL

**Q.** What about the “CFU/mL of E. coli at 24 hours” value ([1]; 3.0% substituted for sodium salt in coating ([…] weight silver), polyurethane coated lantern slides) of the same compound?
**A.** 0; 0 CFU/mL

**Q.** And the “CFU/mL of E. coli at 24 hours” value ([1]; 10.0% substituted for sodium salt in coating (0.61% weight silver), polyurethane coated lantern slides)?
**A.** 0; 0 CFU/mL

**Q.** What about the “Overall silver level effective as bactericide” value ([1]; 12 hours of exposure) of the same compound?
**A.** 0.06 % weight silver relative to coating weight

**Q.** What about the “Ag+ level resulting in complete killing of the E. coli” value [1, 5] of the same compound?
**A.** ≥ 0.031 % Ag+ relative to coating weig

**Q.** And the “Level of substitution resulting in complete killing of the E. coli” value [1, 5]?
**A.** ≥ 0.5 % weight relative to the 30% N

**Q.** And the “Overall silver level effective as bactericide” value ([1]; 24 hours of exposure)?
**A.** 0.006 % weight silver relative to coating weight

**Q.** What about the “CFU/mL of E. coli at 24 hours” value ([1]; […] weight w/w Ag in coating (first column 0.0226), polyurethane, microscope slides) of the same compound?
**A.** 0, 0, 0 CFU/mL

**Q.** And the “CFU/mL of E. coli at 12 hours” value [1, 6]?
**A.** 0, 0, 0 CFU/mL

**Q.** What about the “CFU/mL of E. coli at 24 hours” value [1, 6] of the same compound?
**A.** 0, 0, 0 CFU/mL

**Q.** What about the “E. coli growth on sprayed fabrics” value ([2]; 0.06% Ag AgAOT/isopropanol, 24 h contact time) of the same compound?
**A.** With the single exception of silk, complete eradication is obtained for each of the other fabrics

**Q.** And the “E. coli CFU/mL, Average” value ([2]; acetate sprayed with 0.06% w/w AgAOT/isopropanol, 0 h contact time)?
**A.** 3.08E+05 CFU/mL

**Q.** And the “E. coli CFU/mL, Average” value [2, 7]?
**A.** 0.00E+00 CFU/mL

**Q.** And the “E. coli CFU/mL, Run #1-#4” value [2, 7]?
**A.** 0.00E+00 CFU/mL

**Q.** And the “E. coli CFU/mL, Average” value ([2]; cotton sprayed with 0.06% w/w AgAOT/isopropanol, 0 h contact time)?
**A.** 2.53E+05 CFU/mL

**Q.** And the “E. coli CFU/mL, Average” value [2, 8]?
**A.** 0.00E+00 CFU/mL

**Q.** What about the “E. coli CFU/mL, Run #1-#4” value [2, 8] of the same compound?
**A.** 0.00E+00 CFU/mL

**Q.** And the “E. coli CFU/mL, Average” value ([2]; linen sprayed with 0.06% w/w AgAOT/isopropanol, 0 h contact time)?
**A.** 1.46E+05 CFU/mL

**Q.** And the “E. coli CFU/mL, Average” value [2, 9]?
**A.** 0.00E+00 CFU/mL

**Q.** And the “E. coli CFU/mL, Run #1-#4” value [2, 9]?
**A.** 0.00E+00 CFU/mL

**Q.** And the “E. coli CFU/mL, Avg” value [2, 10]?
**A.** 3.10E+05 CFU/mL

**Q.** And the “E. coli CFU/mL, Run #1-#2” value [2, 10]?
**A.** 3.40E+05 CFU/mL and 2.80E+05 CFU/mL

**Q.** And the “E. coli CFU/mL, Avg” value [2, 11]?
**A.** 0.00E+00 CFU/mL

**Q.** And the “E. coli CFU/mL, Run #1-#2” value [2, 11]?
**A.** 0.00E+00 CFU/mL

**Q.** What about the “E. coli on sprayed household surfaces” value ([2]; 0 h contact time (5-10 minutes)) of the same compound?
**A.** does not significantly attenuate E. coli growth

**Q.** And the “E. coli on sprayed household surfaces” value ([2]; 24 h contact time)?
**A.** eradicated on each of the samples

**Q.** What about the “E. coli CFU/mL, Average” value ([2]; polyester sprayed with 0.06% w/w AgAOT/isopropanol, 0 h contact time) of the same compound?
**A.** 9.10E+04 CFU/mL

**Q.** And the “E. coli CFU/mL, Average” value [2, 12]?
**A.** 0.00E+00 CFU/mL

**Q.** What about the “E. coli CFU/mL, Run #1-#4” value [2, 12] of the same compound?
**A.** 0.00E+00 CFU/mL

**Q.** What about the “E. coli CFU/mL, Average” value ([2]; rayon sprayed with 0.06% w/w AgAOT/isopropanol, 0 h contact time) of the same compound?
**A.** 2.88E+05 CFU/mL

**Q.** And the “E. coli CFU/mL, Average” value ([2]; rayon sprayed with 0.06% w/w AgAOT/isopropanol, 24 h contact time)?
**A.** 3.25E+05 CFU/mL

**Q.** What about the “E. coli CFU/mL, Average” value [2, 13] of the same compound?
**A.** 2.55E+05 CFU/mL

**Q.** And the “E. coli CFU/mL, Run #1-#2” value [2, 13]?
**A.** 2.70E+05 CFU/mL and 2.40E+05 CFU/mL

**Q.** What about the “E. coli CFU/mL, Average” value ([2]; silk sprayed with 0.06% w/w AgAOT/isopropanol, 24 h contact time) of the same compound?
**A.** 2.75E+07 CFU/mL

**Q.** What about the “E. coli CFU/mL, Average” value [2, 14] of the same compound?
**A.** 3.38E+05 CFU/mL

**Q.** What about the “E. coli CFU/mL, Run #1-#4” value [2, 14] of the same compound?
**A.** 3.20E+05 CFU/mL and 3.60E+05 CFU/mL and 3.10E+05 CFU/mL

**Q.** And the “E. coli CFU/mL, Average” value [2, 15]?
**A.** 0.00E+00 CFU/mL

**Q.** What about the “E. coli CFU/mL, Run #1-#4” value [2, 15] of the same compound?
**A.** 0.00E+00 CFU/mL

**Q.** And the “E. coli CFU/mL, Avg” value [2, 16]?
**A.** 2.60E+05 CFU/mL

**Q.** What about the “E. coli CFU/mL, Run #1-#2” value [2, 16] of the same compound?
**A.** 2.30E+05 CFU/mL and 2.90E+05 CFU/mL

**Q.** And the “E. coli CFU/mL, Avg” value [2, 17]?
**A.** 0.00E+00 CFU/mL

**Q.** What about the “E. coli CFU/mL, Run #1-#2” value [2, 17] of the same compound?
**A.** 0.00E+00 CFU/mL

**Q.** What about the “E. coli CFU/mL, Avg” value ([2]; wall-paper sprayed with 0.06% Ag+ AgAOT solution, 0 h contact time) of the same compound?
**A.** 1.94E+05 CFU/mL

**Q.** What about the “E. coli CFU/mL, Avg” value [2, 18] of the same compound?
**A.** 0.00E+00 CFU/mL

**Q.** And the “E. coli CFU/mL, Run #1-#2” value [2, 18]?
**A.** 0.00E+00 CFU/mL
